Source: patent publication US20050150764A1 (priority 2001, published 2005)

Experiments:
logP (pH 2) = conditions: for logP (pH 2): intermediates of formula (VIIa), Table 6
[1] = system: caterpillars of the army worm (Spodoptera exigua); assay: Spodoptera exigua test (Example D); type: in vivo; conditions: 500 ppm, after 6 days, cabbage leaves dipped
Experimental: (§1) Spodoptera exigua Test [table] To produce a suitable preparation of active compound, 1 part by weight of active compound is mixed with the stated amounts of solvent and emulsifier, and the concentrate is diluted with emulsifier-containing water to the desired concentration. Cabbage leaves (Brassica oleracea) are treated by being dipped into the preparation of active compound at the desired concentration and are populated with caterpillars of the army worm (Spodoptera exigua) while the leaves are still moist. After the desired period of time, the kill in % is determined. 100% means that all of the caterpillars have been killed: 0% denotes that no caterpillars have been killed.

[2] = system: caterpillars of the cabbage moth (Plutella xylostella); assay: Plutella test (Example C); type: in vivo; conditions: 500 ppm, after 6 days, cabbage leaves dipped
Experimental: as §1, with “Plutella test” for “Spodoptera exigua Test”, “cabbage moth (Plutella xylostella)” for “army worm (Spodoptera exigua)”

[3] = system: Heliothis virescens caterpillars; assay: Heliothis virescens test (Example A); type: in vivo; conditions: 500 ppm, after 6 days, soya shoots dipped
Experimental: Heliothis virescens Test [table] To produce a suitable preparation of active compound, 1 part by weight of active compound is mixed with the stated amounts of solvent and emulsifier, and the concentrate is diluted with emulsifier-containing water to the desired concentration. Soya shoots (Glycine max) are treated by being dipped into the preparation of active compound at the desired concentration and are populated with Heliothis virescens caterpillars while the leaves are still moist. After the desired period of time, the kill in % is determined. 100% means that all of the caterpillars have been killed: 0% denotes that no caterpillars have been killed.

[4] = system: caterpillars of the army worm (Spodoptera frugiperda); assay: Spodoptera frugiperda test (Example E); type: in vivo; conditions: 1000 ppm, after 7 days, cabbage leaves dipped
Experimental: as §1, with “frugiperda” for “exigua”, “frugiperda)” for “exigua)”

[5] = not given; remark: listed apart in the source
Lucilia cuprina larvae = assay: Blowfly larvae test/development inhibition activity (Example I); type: in vivo; conditions: 100% = no flies hatched
Experimental: Blowfly Larvae Test/Development Inhibition Activity
(§2) 20 mg of active substance are dissolved in 1 ml of dimethyl sulphoxide; lower concentrations are prepared by dilution with distilled water.
About 20 Lucilia cuprina larvae are introduced into a test tube containing 1 cm^3 of horse meat and 0.5 ml of the test preparation of active compound. The efficacy of the active compound preparation is determined after 24 and 48 hours. The test tubes are transferred to beakers whose bases are covered with sand. After 2 more days, the test tubes are removed and the pupae are counted.
The activity of the active compound preparation is assessed in accordance with the number of flies which have hatched following 1.5 times the development period of an untreated control. 100% means that no flies have hatched; 0% means that all of the flies hatched normally.

[6] = system: adult Musca domestica, strain: Reichswald (OP, SP, carbamate resistant); assay: Test with flies (Musca domestica) (Example H); type: in vivo
Experimental: Test with Flies (Musca domestica)
as §2
[…] After the filter disks have dried, 25 test organisms are transferred to the Petri dishes and covered.
The activity of the active compound preparation is determined after 1, 3, 5, 24 and 48 hours. 100% means that all the flies were killed; 0% means that none of the flies was killed.

[7] = system: larvae of the mustard beetle (Phaedon cochleariae); assay: Phaedon larvae test (Example B); type: in vivo; conditions: 1000 ppm, after 7 days, cabbage leaves dipped
Experimental: as §1, with “Phaedon larvae Test” for “Spodoptera exigua Test”, “with larvae” for “with caterpillars”, “the mustard beetle (Phaedon cochleariae)” for “the army worm (Spodoptera exigua)”, “the beetle larvae” for “the caterpillars”, “no beetle larvae” for “no caterpillars”

[8] = system: caterpillars of the army worm (Spodoptera frugiperda); assay: Activity duration test: Spodoptera frugiperda (Example G); type: in vivo; conditions: 20 ppm, cotton plants sprayed
Experimental: (§3) Activity Duration Test: Spodoptera frugiperda [table] To produce a suitable preparation of active compound, 1 part by weight of active compound is mixed with the stated amounts of solvent and emulsifier, and the concentrate is diluted with emulsifier-containing water to the desired concentration. Cotton plants (Gossypium hirsutum) are sprayed with a preparation of the active compound in the desired concentration. After the number of days indicated, caterpillars of the army worm (Spodoptera frugiperda) are placed onto the treated leaves in infection chambers. After the desired period of time, the kill in % is determined. 100% means that all of the caterpillars have been killed: 0% denotes that no caterpillars have been killed.

[9] = system: Heliothis virescens caterpillars; assay: Activity duration test: Heliothis virescens (Example F); type: in vivo; conditions: 20 ppm, cotton plants sprayed
Experimental: as §3, with “Heliothis virescens” for “Spodoptera frugiperda”, “indicated, Heliothis virescens” for “indicated,”, “caterpillars” for “caterpillars of the army worm (Spodoptera frugiperda)”

[10] = Concentration 4 μg fly, reading time not given
[11] = Concentration 20 μg fly, reading time not given
[12] = Concentration 100 μg fly, reading time not stated (1, 3, 5, 24 and 48 hours in method)

Compound N#Cc1cccc(C(=O)C2CCOC2=O)c1 (stereo not drawn) has a logP (logP (pH 2)) of 1.48.

For N#Cc1cccc(C2=NN(C(=O)Nc3ccc(OC(F)(F)F)cc3)CCC2n2cc(Cl)cn2)c1 (stereo not drawn) [Example 1, 3-(3-cyanophenyl)-4-(4-chloropyrazol-1-yl)-1-(4-trifluoromethoxyphenylamino)carbonyl-1,4,5,6-tetrahydropyridazine], the melting point was 216 °C, the kill [1] was 100% and the kill [2] was 100%. The kill [3] was 100% and the logP (logP (pH 2)) was 4.08.

For O=C(Nc1ccc(OC(F)(F)F)cc1)N1CCC(n2cc(Cl)cn2)C(c2cccc(C(F)(F)F)c2)=N1 (stereo not drawn) [Example 3], the kill [4] was 100%, the “logP (pH 2)/ m.p. [° C.] (logP part)” value [5] was 4.83/192 and the “% Activity/Kill” value (Lucilia cuprina larvae; Concentration 4 ppm) was 0%. The “% Activity/Kill” value (Lucilia cuprina larvae; Concentration 20 ppm) was 100%, the “% Activity/Kill” value (Lucilia cuprina larvae; Concentration 100 ppm) was 100% and the “% Activity/Kill” value [6, 10] was 0%. For the same compound, the “% Activity/Kill” value [6, 11] was 50%, the “% Activity/Kill” value [6, 12] was 95% and the kill [7] was 100%.

For O=C(Nc1ccc(OC(F)(F)F)cc1)N1CCC(n2cc(Cl)cn2)C(c2cccc(F)c2)=N1 (stereo not drawn) [Example 6], the kill [4] was 100%, the “logP (pH 2)/ m.p. [° C.] (logP part)” value [5] was 4.43/148 and the “% Activity/Kill” value (Lucilia cuprina larvae; Concentration 20 ppm) was 0%. The “% Activity/Kill” value (Lucilia cuprina larvae; Concentration 100 ppm) was 100%, the “% Activity/Kill” value [6, 10] was 0% and the “% Activity/Kill” value [6, 11] was 50%. The “% Activity/Kill” value [6, 12] was 99% and the kill [7] was 100%.

For O=C(Nc1ccc(OC(F)(F)F)cc1)N1CCC(n2cc(Cl)cn2)C(c2cccc(Cl)c2)=N1 (stereo not drawn) [Example 7], the kill [4] was 100%, the “logP (pH 2)/ m.p. [° C.] (logP part)” value [5] was 4.73/181 and the “% Activity/Kill” value (Lucilia cuprina larvae; Concentration 4 ppm) was 0%. For the same compound, the “% Activity/Kill” value (Lucilia cuprina larvae; Concentration 20 ppm) was 100%, the “% Activity/Kill” value (Lucilia cuprina larvae; Concentration 100 ppm) was 100% and the “% Activity/Kill” value [6, 10] was 0%. For the same compound, the “% Activity/Kill” value [6, 11] was 50%, the “% Activity/Kill” value [6, 12] was 99% and the kill [7] was 100%.

With O=C(Nc1ccc(C(F)(F)F)cc1)N1CCC(n2cc(Cl)cn2)C(c2cccc(Cl)c2)=N1 (stereo not drawn) [Example 9] the kill [4] was 100%, the “logP (pH 2)/ m.p. [° C.] (logP part)” value [5] was 4.69/199 and the “% Activity/Kill” value (Lucilia cuprina larvae; Concentration 20 ppm) was 0%. For the same compound, the “% Activity/Kill” value (Lucilia cuprina larvae; Concentration 100 ppm) was 100%, the “% Activity/Kill” value [6, 10] was 0% and the “% Activity/Kill” value [6, 11] was 85%. The “% Activity/Kill” value [6, 12] was 95% and the kill [7] was 100%.

In the case of O=C(Nc1ccc(C(F)(F)F)cc1)N1CCC(n2cc(Cl)cn2)C(c2cccc(Br)c2)=N1 (stereo not drawn) [Example 13], the kill [1] is reported as 100%, the kill [2] is reported as 100% and the “logP (pH 2)/ m.p. [° C.] (logP part)” value [5] is reported as 4.77/196. The kill [3] was 100%.

For O=C(Nc1ccc(C(F)(F)F)cc1)N1CCC(n2cc(Cl)cn2)C(c2cccc(C(F)(F)F)c2)=N1 (stereo not drawn) [Example 14], the kill [1] was 100%, the kill [2] was 100% and the “logP (pH 2)/ m.p. [° C.] (logP part)” value [5] was 4.79/176. The “Degree of kill in %” value ([8]; infection after 5 days) was 90%, the “Degree of kill in %” value ([8]; infection after 12 days) was 80% and the “Degree of kill in %” value ([8]; infection after 19 days) was 70%. The “Degree of kill in %” value ([8]; infection after 26 days) was 90%, the kill ([9]; infection after 5 days) was 100% and the kill ([9]; infection after 12 days) was 100%. The kill ([9]; infection after 19 days) was 100%, the kill ([9]; infection after 26 days) was 100% and the kill [3] was 100%.

With O=C(Nc1ccc(SC(F)(F)F)cc1)N1CCC(n2cc(Cl)cn2)C(c2cccc(F)c2)=N1 (stereo not drawn) [Example 15] the kill [1] was 100%, the kill [2] was 100% and the “logP (pH 2)/ m.p. [° C.] (logP part)” value [5] was 4.81/166. For the same compound, the “Degree of kill in %” value ([8]; infection after 5 days) was 90%, the “Degree of kill in %” value ([8]; infection after 12 days) was 90% and the “Degree of kill in %” value ([8]; infection after 19 days) was 80%. The “Degree of kill in %” value ([8]; infection after 26 days) was 90% and the kill [3] was 100%.

With N#Cc1cccc(C2=NN(C(=O)Nc3ccc(SC(F)(F)F)cc3)CCC2n2cc(Cl)cn2)c1 (stereo not drawn) [Example 17] the kill [1] was 100%, the kill [2] was 100% and the “logP (pH 2)/ m.p. [° C.] (logP part)” value [5] was 4.44/182. It also gave a kill [3] of 100%.

In the case of N#Cc1cccc(C(=O)C(Br)CCCl)c1 (stereo not drawn) [Example V-1, 3′-cyano-2-bromo-4-chlorobutyrophenone], the logP (logP (pH 2)) is reported as 3.09.

For N#Cc1cccc(C2=NNCCC2n2cc(Cl)cn2)c1 (stereo not drawn) [II-1, 3-(3-cyanophenyl)-4-(4-chloropyrazol-1-yl)-1,4,5,6-tetrahydropyridazine], the melting point was 171 °C and the logP (logP (pH 2)) was 2.29.

N#Cc1cccc(C(=O)C(CCCl)n2cc(Cl)cn2)c1 (stereo not drawn) [IV-1, 3′-cyano-2-(4-chloropyrazol-1-yl)-4-chlorobutyrophenone] showed a logP (logP (pH 2)) of 2.95.

Compound N#Cc1cccc(C(=O)CCCCl)c1 [VI-1, 3′-cyano-4-chlorobutyrophenone] has a logP (logP (pH 2)) of 2.49.

For O=C1OCCC1C(=O)c1cccc(C(F)(F)F)c1 (stereo not drawn) [VIIa-2], the “logP (pH 2)” value (logP (pH 2)) was 2.42.

For O=C1OCCC1C(=O)c1cccc(F)c1 (stereo not drawn) [VIIa-3], the “logP (pH 2)” value (logP (pH 2)) was 1.77.
